Calls of active or inactive are those of the source.
Assays:
[1] = tested on: Streptococcus; assay: Group A Streptococcus viability loss, dose response, counter-screen for streptokinase expression inhibitor project, luminescence, BacTiterGlo (AID 1915); type: functional, organism-based;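 note: potency for reduction of bacterial viability or growth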
[2] = target: T1, Streptokinase A (Streptococcus pyogenes serotype M1, UniProt P10520); assay: S. pyogenes streptokinase expression inhibitors, potency, dose response, plasminogen activation absorbance, OD405 (AID 1914); type: functional, Streptococcus pyogenes M1 GAS;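 note: secreted streptokinase activity via plasminogen activation per viability signal from cell pellet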
T1 sequence (P10520 whole entry): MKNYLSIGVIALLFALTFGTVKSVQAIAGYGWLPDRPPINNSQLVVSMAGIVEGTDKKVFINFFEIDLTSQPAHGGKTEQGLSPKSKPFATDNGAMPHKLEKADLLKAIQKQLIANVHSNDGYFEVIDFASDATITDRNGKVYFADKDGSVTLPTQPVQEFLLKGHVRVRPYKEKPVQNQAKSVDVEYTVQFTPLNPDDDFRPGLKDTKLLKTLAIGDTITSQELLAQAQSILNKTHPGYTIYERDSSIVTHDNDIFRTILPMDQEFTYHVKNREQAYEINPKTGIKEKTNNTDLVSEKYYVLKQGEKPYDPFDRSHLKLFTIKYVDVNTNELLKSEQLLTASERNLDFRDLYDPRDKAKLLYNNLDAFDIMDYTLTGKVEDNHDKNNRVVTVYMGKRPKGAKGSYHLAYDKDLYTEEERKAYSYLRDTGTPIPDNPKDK

[3] = tested on: Streptococcus sp. 'group A'; assay: growth inhibition of control SK(-) GAS strain, dose response, counter-screen for streptokinase expression inhibitor project, luminescence, kanamycin, BacTiterGlo, confirmation (AID 1900); type: functional, organism-based
[4] = Vero cell cytotoxicity, dose response, cytotoxicity control for Vif-APOBEC3G degradation inhibitor project, Vero cells (AID 1117358); type: functional; settings: Human immunodeficiency virus 1, Vero
[5] = P. falciparum late gametocyte killing, dose response, luminescence (AID 1117278); type: functional, cell-based;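 note: gametocytes exposed to compound for 24 hours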
[6] = Jurkat T cell cytotoxicity, dose response, cytotoxicity control for P. falciparum gametocyte viability project, luminescence (AID 1117277); type: functional, cell-based;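 note: potency reflects loss of cellular ATP meaning fewer viable cells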
[7] = HEK293T cytotoxicity, dose response, cytotoxicity control for miR-122 modulator project, cell-based, inhibitor set, cherry-pick, set 2 (AID 720697); type: functional
[8] = cytotoxicity toward HT-29 cells – cell-based, CellTiter-Glo luminescence, IC50, dose response (AID 1117330); type: functional
[9] = HCT116 cell viability decrease, GSK3B pretreatment – CellTiter-Glo, IC50, dose response (AID 1117339); type: functional; settings: HCT-116
[10] = cytotoxicity toward Colo320 cells – cell-based, CellTiter-Glo luminescence, IC50, dose response (AID 1117334); type: functional; settings: COLO 320
[11] = cytotoxicity toward HCT116 cells – cell-based, CellTiter-Glo luminescence, IC50, dose response (AID 1117332); type: functional; settings: HCT-116
[12] = RKO cell viability reduction, dose response, CellTiter-Glo luminescence (AID 1117322); type: functional
[13] = Concentration-dependent survival of SW480 colon cancer line, luminescence detection with CellTiter-Glo, half-maximal inhibitory concentration (AID 1117338); type: functional
[14] = SNU-C1 cell viability reduction, dose response, CellTiter-Glo luminescence (AID 1117323); type: functional, cell-based
[15] = tested on: INS1; assay: beta cell apoptosis inhibitors, cytokine rescue, dose response, luminescence, retest (AID 449756); type: functional, cell-based; settings: Rattus norvegicus;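 note: cell death triggered by IL-1 beta plus TNF-alpha plus IFN-gamma mixture; protective hits raise ATP signal compared with cytokine alone wells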
[16] = Counterscreen for activators of the function of SWI/SNF related, matrix associated, actin dependent regulator of chromatin, subfamily a, member 2 (SMARCA2, BRM): Luminescence-based cell-based high throughput dose response assay to identify non-selective compounds using the VP16 reporter assay.; type: functional
[17] = MC4R antagonists, dose response, counter-screen for LGR2 antagonist project, cell-based, plate reader, cherry pick (AID 743444); type: functional;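 note: transfected HEK 293 cells stimulated with alpha-MSH peptide; potency of inhibitors of the alpha-MSH evoked signal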
[18] = HepG2 cell cytotoxicity, dose response, cytotoxicity control, plate reader, cherry-pick, antagonist series (AID 743416); type: functional, cell-based
[19] = LGR2 antagonists, dose response, cell-based, HEK293, CRE-luciferase reporter, cherry pick, set 2 (AID 743343); type: functional;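 note: transfected cells were stimulated with diluted bursicon conditioned medium after compound addition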
[20] = target: SWI/SNF-related matrix-associated actin-dependent regulator of chromatin subfamily A member 2 (Homo sapiens, UniProt P51531); assay: Luminescence-based cell-based high throughput dose response assay to identify activators of the function of SWI/SNF related, matrix associated, actin dependent regulator of chromatin, subfamily a, member 2 (SMARCA2, BRM).; type: functional
[21] = HEK293 cell cytotoxicity, dose response, cytotoxicity control, plate reader, cherry-picked samples (AID 743446); type: functional, cell-based
[22] = A549 cell cytotoxicity, dose response, cytotoxicity control, plate reader, cherry-pick, antagonist series (AID 743412); type: functional, cell-based
[23] = target: T2, DNA repair protein RAD52 homolog (Homo sapiens, UniProt P43351); type: functional, biochemical
T2 sequence (P43351 whole entry): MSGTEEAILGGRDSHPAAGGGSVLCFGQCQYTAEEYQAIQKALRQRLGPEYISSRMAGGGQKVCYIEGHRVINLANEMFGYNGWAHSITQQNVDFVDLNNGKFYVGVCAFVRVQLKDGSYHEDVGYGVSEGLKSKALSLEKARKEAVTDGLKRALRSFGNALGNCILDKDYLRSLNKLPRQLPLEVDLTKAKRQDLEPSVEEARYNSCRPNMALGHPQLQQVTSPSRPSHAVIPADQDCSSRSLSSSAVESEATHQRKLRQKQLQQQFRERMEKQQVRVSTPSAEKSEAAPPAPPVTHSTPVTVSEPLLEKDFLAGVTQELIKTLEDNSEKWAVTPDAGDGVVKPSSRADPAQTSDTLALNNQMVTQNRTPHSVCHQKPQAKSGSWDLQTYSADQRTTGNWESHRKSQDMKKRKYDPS

[24] = cells
[25] = target: Oxysterols receptor LXR-beta (Homo sapiens, UniProt P55055); type: functional, cell-based;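 note: Cell-based luminescence dose-response assay of agonist activity at LXR, run as a confirmatory counterscreen to a daf-12 agonist screen; HEK293 cells with Gal4-LXR fusion and GAL4-driven luciferase reporter; agonist potency from rising luciferase signal of a Gal4-LXR reporter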
[26] = P. falciparum Dd2 growth inhibitors, dose response, SYBR Green, dry powder samples (AID 1159566); type: functional, cell-based;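 note: potency for growth inhibition with lower SYBR green DNA signal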
[27] = P. falciparum Dd2 growth inhibitors, dose response, SYBR Green, cherry-picked samples (AID 1159567); type: functional, cell-based
[28] = P. falciparum 3D7-ScDHODH growth inhibitors, dose response, SYBR Green, dry powder samples (AID 1159570); type: functional, cell-based;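 note: parasite growth measured after 72 hours of compound exposure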
[29] = P. falciparum ATP4 D1247Y mutant growth inhibitors, dose response, NITD609-resistant line, SYBR Green, dry powder (AID 1159571); type: functional, cell-based;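 note: parasites synchronized at ring stage by sorbitol before testing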
[30] = target: Disintegrin and metalloproteinase domain-containing protein 17 (Homo sapiens, UniProt P78536); assay: exosite inhibitors of ADAM17, dose response, biochemical (AID 743260)
[31] = ADAM10 protease inhibitors, dose response, selectivity assay for ADAM17 exosite inhibitor project, biochemical, FRET peptide substrate, recombinant human ADAM10 (AID 743259);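 note: ADAM10 enzyme cleaving a FRET peptide substrate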
[32] = inhibitors of PGC1a acetylation in cells, dose response, cell-based, cherry-picked samples (AID 720514); type: functional;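 note: potency may reflect raised or lowered acetylation signal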
[33] = target: Paired box protein Pax-8 (Homo sapiens, UniProt Q06710); assay: inhibitors of PAX8-driven TPO luciferase reporter, dose response, RMG-I cells, cherry-pick (AID 687027); type: functional, cell-based;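 note: luciferase reporter driven by Pax8 target thyroperoxidase promoter measured by SteadyGlo luminescence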
[34] = cytotoxicity in OVCAR8 ovarian cancer cells, dose response, PAX8 project, cell-based, plate reader, dry powder samples (AID 743197); type: functional; settings: OVCAR-8
[35] = CellTiter-Glo luminescent dose response of DLD-1 viability loss (AID 1117352); type: functional
[36] = Luminescence Cell-Based Dose Retest to Confirm Inhibitors of Cancer Stem Cells. [Related pubchem assays (depositor defined):AID2717, AID2721]; type: functional; settings: Homo sapiens
[37] = HeLa 4N DNA content increase, dose response, cell-based, IC50 (AID 1117351); type: functional
[38] = Glucagon-like peptide 1 release potency, NCI-H716 cell line, dose-response, half-maximal inhibitory concentration (AID 1117344); type: functional, cell-based
[39] = HeLa 2N DNA content increase, dose response, cell-based, IC50 (AID 1117349); type: functional
[40] = target: Photoreceptor-specific nuclear receptor (Homo sapiens, UniProt Q9Y5X4); type: functional, cell-based;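 note: CHO-S cells with Gal4-NCOR and VP16-NR2E3 two-hybrid luciferase reporter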
[41] = half-maximal inhibitory concentration for glucagon-like peptide-1 release, STC-1 cell line, dose-response (AID 1117345); type: functional, cell-based
[42] = tested on: HeLa; assay: HeLa cell cytotoxicity, dose response, cytotoxicity control, ATP luminescence, cherry-pick samples (AID 687004); type: functional, cell-based; settings: Homo sapiens

Sequence of Disintegrin and metalloproteinase domain-containing protein 17 (P78536 whole entry, the tested form may be a part): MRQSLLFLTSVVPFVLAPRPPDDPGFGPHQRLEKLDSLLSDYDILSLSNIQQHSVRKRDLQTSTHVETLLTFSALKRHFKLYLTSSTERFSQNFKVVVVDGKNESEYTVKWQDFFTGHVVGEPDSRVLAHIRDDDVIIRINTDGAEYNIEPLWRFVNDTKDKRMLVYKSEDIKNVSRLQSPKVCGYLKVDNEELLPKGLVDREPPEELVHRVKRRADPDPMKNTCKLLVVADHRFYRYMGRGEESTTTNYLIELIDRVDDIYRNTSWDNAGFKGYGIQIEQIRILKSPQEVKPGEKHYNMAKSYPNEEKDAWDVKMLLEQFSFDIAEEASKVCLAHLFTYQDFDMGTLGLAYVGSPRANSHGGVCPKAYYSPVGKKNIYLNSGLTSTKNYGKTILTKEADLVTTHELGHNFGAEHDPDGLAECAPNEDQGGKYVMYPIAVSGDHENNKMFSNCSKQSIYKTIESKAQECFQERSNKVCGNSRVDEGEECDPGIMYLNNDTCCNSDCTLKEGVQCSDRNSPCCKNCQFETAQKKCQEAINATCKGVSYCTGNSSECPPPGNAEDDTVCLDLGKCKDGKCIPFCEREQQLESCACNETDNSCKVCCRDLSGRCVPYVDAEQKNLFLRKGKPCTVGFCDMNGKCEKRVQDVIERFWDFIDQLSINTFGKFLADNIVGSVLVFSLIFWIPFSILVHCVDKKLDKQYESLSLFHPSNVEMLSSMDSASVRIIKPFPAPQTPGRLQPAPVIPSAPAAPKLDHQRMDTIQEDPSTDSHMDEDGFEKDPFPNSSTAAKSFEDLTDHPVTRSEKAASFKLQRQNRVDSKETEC
Sequence of SWI/SNF-related matrix-associated actin-dependent regulator of chromatin subfamily A member 2 (P51531 whole entry): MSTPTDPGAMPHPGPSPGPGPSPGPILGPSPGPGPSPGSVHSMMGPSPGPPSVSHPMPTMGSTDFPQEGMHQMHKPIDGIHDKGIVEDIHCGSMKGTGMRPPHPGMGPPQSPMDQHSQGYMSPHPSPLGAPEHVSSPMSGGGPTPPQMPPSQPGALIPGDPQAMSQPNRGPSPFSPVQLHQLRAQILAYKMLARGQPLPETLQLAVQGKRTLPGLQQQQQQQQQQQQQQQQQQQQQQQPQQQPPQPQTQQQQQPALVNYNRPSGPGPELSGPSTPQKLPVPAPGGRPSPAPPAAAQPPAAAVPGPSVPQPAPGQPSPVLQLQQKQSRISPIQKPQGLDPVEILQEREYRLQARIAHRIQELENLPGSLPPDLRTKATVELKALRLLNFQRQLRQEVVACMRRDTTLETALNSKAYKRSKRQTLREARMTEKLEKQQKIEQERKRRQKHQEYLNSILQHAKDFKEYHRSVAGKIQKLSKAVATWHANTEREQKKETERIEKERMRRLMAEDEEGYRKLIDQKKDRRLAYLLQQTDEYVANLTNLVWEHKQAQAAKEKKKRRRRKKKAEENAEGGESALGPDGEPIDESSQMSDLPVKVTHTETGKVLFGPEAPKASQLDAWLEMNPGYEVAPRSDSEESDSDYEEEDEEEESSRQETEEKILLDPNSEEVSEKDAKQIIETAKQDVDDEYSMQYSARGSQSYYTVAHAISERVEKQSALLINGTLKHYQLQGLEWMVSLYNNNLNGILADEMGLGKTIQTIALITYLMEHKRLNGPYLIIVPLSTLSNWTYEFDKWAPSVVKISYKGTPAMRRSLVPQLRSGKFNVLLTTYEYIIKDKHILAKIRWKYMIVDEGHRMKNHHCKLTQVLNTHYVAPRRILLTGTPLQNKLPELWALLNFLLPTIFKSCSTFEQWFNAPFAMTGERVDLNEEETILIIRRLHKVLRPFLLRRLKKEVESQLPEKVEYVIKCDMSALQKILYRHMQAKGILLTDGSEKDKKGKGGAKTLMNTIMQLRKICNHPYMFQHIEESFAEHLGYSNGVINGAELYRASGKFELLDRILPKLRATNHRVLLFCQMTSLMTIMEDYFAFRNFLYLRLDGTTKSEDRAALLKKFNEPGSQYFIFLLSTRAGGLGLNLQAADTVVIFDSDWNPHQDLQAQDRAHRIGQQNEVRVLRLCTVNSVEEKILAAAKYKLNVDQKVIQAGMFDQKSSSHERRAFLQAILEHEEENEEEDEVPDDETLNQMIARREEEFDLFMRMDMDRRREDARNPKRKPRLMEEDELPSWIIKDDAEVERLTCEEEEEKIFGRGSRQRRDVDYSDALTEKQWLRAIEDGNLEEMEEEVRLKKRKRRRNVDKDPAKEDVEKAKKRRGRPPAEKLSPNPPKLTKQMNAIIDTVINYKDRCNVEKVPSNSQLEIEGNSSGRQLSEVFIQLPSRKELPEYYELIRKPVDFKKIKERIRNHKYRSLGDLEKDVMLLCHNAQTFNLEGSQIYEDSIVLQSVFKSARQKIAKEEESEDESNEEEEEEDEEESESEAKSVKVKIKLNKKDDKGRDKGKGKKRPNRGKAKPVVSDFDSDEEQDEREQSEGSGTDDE
Sequence of Oxysterols receptor LXR-beta (P55055 whole entry, the tested form may be a part): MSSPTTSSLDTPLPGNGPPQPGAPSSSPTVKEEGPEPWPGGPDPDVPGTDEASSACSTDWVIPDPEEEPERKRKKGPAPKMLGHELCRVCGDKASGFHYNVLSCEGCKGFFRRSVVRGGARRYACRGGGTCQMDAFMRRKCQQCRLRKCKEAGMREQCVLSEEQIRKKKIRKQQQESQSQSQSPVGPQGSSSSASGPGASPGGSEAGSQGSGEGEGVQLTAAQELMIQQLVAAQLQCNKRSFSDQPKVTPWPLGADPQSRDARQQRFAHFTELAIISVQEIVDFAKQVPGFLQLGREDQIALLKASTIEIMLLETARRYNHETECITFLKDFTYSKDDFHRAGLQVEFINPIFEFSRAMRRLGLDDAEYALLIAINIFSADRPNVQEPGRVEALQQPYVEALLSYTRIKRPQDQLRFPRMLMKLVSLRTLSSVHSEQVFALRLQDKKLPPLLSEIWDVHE
Sequence of Paired box protein Pax-8 (Q06710 whole entry): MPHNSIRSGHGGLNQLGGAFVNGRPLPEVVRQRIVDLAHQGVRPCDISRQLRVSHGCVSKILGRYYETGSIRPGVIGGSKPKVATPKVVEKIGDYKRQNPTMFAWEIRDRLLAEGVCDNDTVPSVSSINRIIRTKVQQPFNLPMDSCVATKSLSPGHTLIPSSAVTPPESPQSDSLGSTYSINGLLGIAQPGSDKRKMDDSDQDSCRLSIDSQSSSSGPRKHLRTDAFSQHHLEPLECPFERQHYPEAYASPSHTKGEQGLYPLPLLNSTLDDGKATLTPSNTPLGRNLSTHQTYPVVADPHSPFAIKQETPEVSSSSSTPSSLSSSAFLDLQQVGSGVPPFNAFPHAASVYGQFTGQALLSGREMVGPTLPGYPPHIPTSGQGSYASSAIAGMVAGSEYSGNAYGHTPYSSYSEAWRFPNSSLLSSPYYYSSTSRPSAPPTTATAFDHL
Sequence of Photoreceptor-specific nuclear receptor (Q9Y5X4 whole entry, the tested form may be a part): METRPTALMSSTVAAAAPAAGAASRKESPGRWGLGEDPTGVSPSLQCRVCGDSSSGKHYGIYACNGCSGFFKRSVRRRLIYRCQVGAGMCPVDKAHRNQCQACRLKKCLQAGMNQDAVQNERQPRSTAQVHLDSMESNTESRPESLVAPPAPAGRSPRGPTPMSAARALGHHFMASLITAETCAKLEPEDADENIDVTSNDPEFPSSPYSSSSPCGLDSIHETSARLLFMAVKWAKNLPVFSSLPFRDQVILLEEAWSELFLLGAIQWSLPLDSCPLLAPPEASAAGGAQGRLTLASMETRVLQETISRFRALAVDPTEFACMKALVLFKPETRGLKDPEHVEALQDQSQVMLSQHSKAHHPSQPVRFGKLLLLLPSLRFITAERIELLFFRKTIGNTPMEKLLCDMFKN

O=c1c2c(nc(NCCO)n1CC1CCCCC1)-c1ccccc1CC21CCCC1
EC50 [1]: 19.3 µM (inconclusive) | EC50 [2]: 3.48 µM (active) | EC50 [3]: 2.67 µM (active) | CC50 [4]: > 40 µM (active)

O=c1c2ccccc2ncn1CCCCOc1ccc(Br)cc1
IC50 [5]: > 109 µM (inactive) | IC50 [6]: > 83.3 µM (inactive)

COCC(=O)Nc1ccc2c(c1)C(=O)N(C)[C@@H]1CC[C@@H](CC(=O)OC)O[C@@H]1CO2
AC50 [7]: < 195 nM (active)

[H]/C=C\c1c(C)c2cc3nc(cc4[nH]c(cc5nc(cc1[nH]2)C(C)=C5CCC(=O)O)c(CCC(=O)OC)c4C)[C@@]1(C)C3=CC=C(C(=O)OC)[C@@H]1C(=O)OC
IC50 [8]: 3.94 µM (active) | IC50 [9]: 4.26 µM (active) | IC50 [10]: 9.62 µM (inactive) | IC50 [11]: 5.65 µM (inactive) | IC50 [12]: 3.53 µM (active) | IC50 [13]: > 6.67 µM (inactive) | IC50 [14]: 5.85 µM (inactive)

c1ccc2c(NCCCN3CCOCC3)c3ccccc3nc2c1
AC50 [15]: 2.33 µM (active) | EC50 [16]: > 91.2 µM (inactive) | AC50 [17]: 31.3 µM (active) | AC50 [18]: 3.54 µM (active) | AC50 [19]: 21 µM (active) | EC50 [20]: > 3.38 µM (active) | AC50 [21]: 3.16 µM (active) | AC50 [22]: 3.28 µM (active) | AC50 [23]: 1.06 µM (active)

Cc1nn(-c2ccc(Cl)cc2)c(=O)c2ccccc12
EC50 [24]: > 67.5 µM (inactive) | EC50 [25]: > 67.5 µM (inactive)

C[C@H](CO)N1C[C@H](C)[C@@H](CN(C)C(=O)Nc2ccc(-c3ccccc3)cc2)OCc2ccccc2-c2c(n(C)c3ccccc23)C1=O
AC50 [26]: 544 nM (active) | AC50 [27]: 1.41 µM (active) | AC50 [28]: 684 nM (active) | AC50 [29]: 577 nM (active)

O=C(CN1CCCCC1)Nc1c2c(nc3ccccc13)N(c1ccccc1)CC2
EC50 [16]: > 91.2 µM (inactive) | EC50 [20]: > 91.2 µM (inactive)

CCOC(=O)C1=CN(Cc2cccc(F)c2)S(=O)(=O)NC1c1ccc2ccccc2c1 (stereo unspecified)
IC50 [30]: > 69.5 µM (inactive) | IC50 [31]: > 7.73 µM (active)

O=C(Nc1cccc(C(=O)N2CCOCC2)c1)c1ccccc1
IC50 [5]: > 109 µM (inactive) | IC50 [6]: > 83.3 µM (inactive)

C[C@@H]1CCCCO[C@H](CN(C)Cc2ccc(Cl)c(Cl)c2)[C@H](C)CN([C@@H](C)CO)C(=O)c2cc(NC(=O)Nc3ccc(F)cc3)ccc2O1
AC50 [32]: 14.3 µM (active) | AC50 [33]: 11.3 µM (active) | AC50 [34]: 65.1 µM (active)

CC(C)NCC(O)COc1ccc(CCOCC2CC2)cc1 (stereo unspecified) [BETAXOLOL]
IC50 [8]: > 20 µM (inactive) | IC50 [10]: 6.17 µM (inactive) | IC50 [11]: > 20 µM (inactive) | IC50 [12]: > 20 µM (inactive) | IC50 [13]: > 20 µM (inactive) | IC50 [14]: > 20 µM (inactive) | IC50 [35]: > 20 µM (inactive)

O=S(=O)(c1ccccc1)N(CC(O)Cn1c2ccccc2c2ccccc21)c1ccccc1 (stereo unspecified)
IC50 [30]: > 69.5 µM (inactive) | AC50 [36]: 3.66 µM (active) | IC50 [31]: > 69.5 µM (inactive)

CCC(C)(C)C(=O)O[C@H]1C[C@@H](C)C=C2C=C[C@H](C)[C@H](CC[C@@H]3C[C@@H](O)CC(=O)O3)[C@H]21 [SIMVASTATIN]
IC50 [8]: > 20 µM (inactive) | IC50 [37]: > 10 µM (inactive) | IC50 [38]: 21.5 µM (inactive) | IC50 [9]: 4.73 µM (active) | IC50 [10]: 4.94 µM (active) | IC50 [11]: > 20 µM (inactive) | IC50 [39]: > 10 µM (inactive) | IC50 [12]: > 20 µM (inactive) | IC50 [40]: 1.16 µM (active) | IC50 [14]: > 20 µM (inactive) | IC50 [41]: 3.29 µM (active) | IC50 [35]: > 20 µM (inactive)

CC(C)CC#Cc1ccc2c(c1)O[C@@H](CN(C)C(=O)C1CCC1)[C@@H](C)CN([C@H](C)CO)S2(=O)=O
AC50 [42]: > 52 µM (inactive)

Reference: ChEMBL document CHEMBL1201862, “PubChem BioAssay data set” (2004)
